In US20070149406A1, “Plant growth regulation” (Bayer CropScience GmbH, priority 2003, published 2007):

Tests used:
[1] = test system: maize (Zea mays, variety “LORENZO”); experiment: Root growth assay, maize; type: in vivo; conditions: for Root Growth: wet root weight 16 days post treatment, Root Growth of 100 set as the standard
Source text: (§1) Plant roots are a highly proliferative tissue that allows an easy accessible, cheap and short term screening method for plant growth regulators. The results obtained can easily be transferred to the overall effects on a plant of plant growth regulators identified by such a system. By using this root assay one is enabled to determine the effect of a seed treatment to root growth and/or germination and/or changes in habitat of germinated plants in order to identify the possible use as a yield enhancer. Two seeds of wheat (Triticum aestivum, variety “TRISO”) or 1 seed of maize (Zea mays, variety “LORENZO”) per hole in a plastic tray which contains an architecture of 8×13 holes were placed on compost soil covered with sand. These seeds were treated with 100 μl/ hole, which creates an application volume of approx. 1200 I/ha, of a compound solution at active ingredient rates equivalent to 100, 10 and 1 g a.i./ha of each compound using an robotic application system (Lizzy Spray Robotics). Six replicates in a row of each compound and concentration were done. The outer rim of the above defined plastic tray was untreated to avoid false negative effects and the middle row (No. 7) was used as untreated control. The treated seeds were allowed to dry for approx. 4 hours and subsequently covered with sand and watered. The trays were stored in climate chambers with 14 hours lighting at a temperature of 24° C. (±2) at daytime and 16° C. (±2) at night and relative humidity (rH) of 60% and daily watered. Assessments were done 16 (±2) days post treatment by counting the germinated plants and assessing the phytotoxicity symptoms and percentage. In addition, the roots were washed out and the shoots were cut directly above the seed and the wet roots were placed on dry paper towels for approximately 30 minutes and weighted afterwards. This procedure provides a similar grade of moisture to the roots so that a comparison of the weights is possible. […] The effects observed concerning Root Growth given in column 2 (Root Growth of “100” is set as the standard) are directed to concentrations that are equivalent to 100, 10, 1 g a.i./ha, each.

[2] = test system: wheat (Triticum aestivum, variety “TRISO”); experiment: Root growth assay, wheat; type: in vivo; conditions: for Root Growth: wet root weight 16 days post treatment, Root Growth of 100 set as the standard
Source text: as §1

[3] = test system: maize hybrid Magister and Zamora; experiment: Field trial, seed-treated maize, grain yield; type: in vivo; conditions: seed treatment 1 g/100 kg seeds (0.0003 kg/ha)
Source text: Maize seeds of maize hybrid Magister and Zamora were seed treated with compound 1.136 at 1 g/100 kg seeds (0.0003 kg/ha). Field trials were set up in a split plot design representing the plants treated with compounds of formula (I) as well as the non-treated control plants.

Structure (SMILES) | Root Growth ([1]; 1 g a.i./ha) | Root Growth ([1]; 10 g a.i./ha) | Root Growth ([1]; 100 g a.i./ha) | effect as plant growth regulator in maize (in words) [1] | effect as plant growth regulator in wheat (in words) [2] | Root Growth ([2]; 1 g a.i./ha) | Root Growth ([2]; 10 g a.i./ha) | Root Growth ([2]; 100 g a.i./ha) | increase in grain yield compared to non-treated control plants ([3]; maize hybrid Magister) | increase in grain yield compared to non-treated control plants ([3]; maize hybrid Zamora) | melting point [°C]
CNc1c([S+]([O-])C(F)(F)F)c(C(=O)N(C)C)nn1-c1c(Cl)cc(C(F)(F)F)cc1Cl (stereo not shown) [Compound 1.228] | 72 | 111 | 186 | – | – | – | – | – | – | – | –
CCCCCNC(=O)c1nn(-c2c(Cl)cc(C(F)(F)F)cc2Cl)c(N)c1[S+]([O-])C(F)(F)F (stereo not shown) [Compound 1.141] | 111 | 102 | 95 | remarkable effect | superior effect | 257 | 160 | 256 | – | – | –
Nc1c([S+]([O-])C(F)(F)F)c(C(=O)NCC2CCCO2)nn1-c1c(Cl)cc(C(F)(F)F)cc1Cl (stereo not shown) [Compound 1.144] | – | – | – | – | – | 170 | 115 | 110 | – | – | –
NC(=O)c1nn(-c2c(Cl)cc(C(F)(F)F)cc2Cl)c(N)c1[S+]([O-])C(F)(F)F (stereo not shown) [Compound 1.136] | 107 | 131 | 74 | significant effects of approximately the same size | significant effects of approximately the same size | 124 | 75 | 58 | up to 119% | up to 131% | –
CCOc1c(SC(F)(F)F)c(C(N)=O)nn1-c1c(Cl)cc(C(F)(F)F)cc1Cl [Compound 3.3, 1-(2,6-Dichloro-4-trifluoromethylphenyl)-5-ethoxy-4-trifluoromethylthio-1H-pyrazole-3-carboxylic acid amide] | – | – | – | – | – | – | – | – | – | – | 161
Nc1c(SC(F)(F)F)c(C(=O)O)nn1-c1c(Cl)cc(C(F)(F)F)cc1Cl [Compound 2.10, 5-Amino-1-(2,6-dichloro-4-trifluoromethylphenyl)-4-trifluoromethylthio-1H-pyrazole-3-carboxylic acid] | – | – | – | – | – | 158 | 118 | 134 | – | – | –
